Source: US12629371B2, “Compositions and methods for inhibiting kinases” (Inhibikase Therapeutics, Inc., priority 2016, dated 2026)

Key:
[1] = Pharmacokinetic parameters in Sprague-Dawley rats; design: AUC(0-t): concentration or dose not given beside the values; conditions: rat, in vivo
Experimental: Various pharmacokinetic parameters of the compounds described herein were measured in Sprague-Dawley rats.

[2] = Human liver microsome stability; format: in vitro ADME; conditions: human liver microsomes; read-out: Human liver microsome t1/2
Serum protein binding = format: in vitro ADME; conditions: rat
mice treated with MPTP [3] = assay: Mouse MPTP neurotoxicity model; format: in vivo; conditions: for dopamine levels (protection of dopamine-secreting neurons): HPLC-ECD, FIG. 4; for pole test latency: day 14, FIG. 3, control about 5 seconds, MPTP about 30
Experimental: Certain compounds of the present invention were evaluated using the MPTP neurotoxicity model. MPTP causes oxidative stress, which in turn causes c-Abl1 and/or c-Abl2 phosphorylation in the SNpc of mice treated with MPTP. MPTP administration according to this model produces a reliable, irreversible loss of DA neurons 7 days after the last injection, similar to that observed in PD. MPTP causes greater loss of DA neurons in SNpc and degeneration of DA nerve terminals in the caudate putamen. Many of the cell death signaling events observed in PD postmortem tissue are present in the MPTP model including oxidative stress, nitrosative stress, c-Abl activation, Parkin inactivation and PARIS and AIMP2 elevation and PARP activation. […] Because the model is relatively rapid, this model was used to assess dosing for future studies, and as a preliminary measure of efficacy.
The study design is depicted in FIG. 1. […] Wild type mice (n=5 per group) were divided into 4 treatment groups as follows: saline, MPTP, Drug and MPTP+Drug. Saline and MPTP groups were pre-treated with drug vehicle (unbuffered water) (20 animals total). Drug and MPTP+Drug groups received the test compounds for 6 days administered by oral gavage daily. On the seventh day, the saline and Drug groups received four intra-peritoneal (i.p.) injections of saline at 2 h intervals. The MPTP and MPTP+Drug groups received four intraperitoneal (i.p.) injections of MPTP·HCl (20 mg/kg free base) at 2 hr intervals. After the MPTP injection day, mice were treated for an additional 6 days with saline or an ATK inhibitor of the present invention. Mice in the saline and MPTP only groups received saline vehicle while the Drug and MPTP+Drug groups received an additional week of drug treatment. On the 14th day, mice were given a pole test, then sacrificed. Brain samples were processed for analysis of biogenic amine concentrations, including dopamine (DA), by high-performance liquid chromatography with electrochemical detection (HPLC-ECD). Loss of DA and its metabolites in the striatum is a consistently reliable indication of loss of DA neurons in the SNpc.

ABL = ABL (Homo sapiens, UniProt P00519); assay: Inhibition profile at 500 nM: ABL / Abl1; format: biochemical; conditions: 500 nM test compound; Table 1
Sequence of ABL (P00519 whole entry): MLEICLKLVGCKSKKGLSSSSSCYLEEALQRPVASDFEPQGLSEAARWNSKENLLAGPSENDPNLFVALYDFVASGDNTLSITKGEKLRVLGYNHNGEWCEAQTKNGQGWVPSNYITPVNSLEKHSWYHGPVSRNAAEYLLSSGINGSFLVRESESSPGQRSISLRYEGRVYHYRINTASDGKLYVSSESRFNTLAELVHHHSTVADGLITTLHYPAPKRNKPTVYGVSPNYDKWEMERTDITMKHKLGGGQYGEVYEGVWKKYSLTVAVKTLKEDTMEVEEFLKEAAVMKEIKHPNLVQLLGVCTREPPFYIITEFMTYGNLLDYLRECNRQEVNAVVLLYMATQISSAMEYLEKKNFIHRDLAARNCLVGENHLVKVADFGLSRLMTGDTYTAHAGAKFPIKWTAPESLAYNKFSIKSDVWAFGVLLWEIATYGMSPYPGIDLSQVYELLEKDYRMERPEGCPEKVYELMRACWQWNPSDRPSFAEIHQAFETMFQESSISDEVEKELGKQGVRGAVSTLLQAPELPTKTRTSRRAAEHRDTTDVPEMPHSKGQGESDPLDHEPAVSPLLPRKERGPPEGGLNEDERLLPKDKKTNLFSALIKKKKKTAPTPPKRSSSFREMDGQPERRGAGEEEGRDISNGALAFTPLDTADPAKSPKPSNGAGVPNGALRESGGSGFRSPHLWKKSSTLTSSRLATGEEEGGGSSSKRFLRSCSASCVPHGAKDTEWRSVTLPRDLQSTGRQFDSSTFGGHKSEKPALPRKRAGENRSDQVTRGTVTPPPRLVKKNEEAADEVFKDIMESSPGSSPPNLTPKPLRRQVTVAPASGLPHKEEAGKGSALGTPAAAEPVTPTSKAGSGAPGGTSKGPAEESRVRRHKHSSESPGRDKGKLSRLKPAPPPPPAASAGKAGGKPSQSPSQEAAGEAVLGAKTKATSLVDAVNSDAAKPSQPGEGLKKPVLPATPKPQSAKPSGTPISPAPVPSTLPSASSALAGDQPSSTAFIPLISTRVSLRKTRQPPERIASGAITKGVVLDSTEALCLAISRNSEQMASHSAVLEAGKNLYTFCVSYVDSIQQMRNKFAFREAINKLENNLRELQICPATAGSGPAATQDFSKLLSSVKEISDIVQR
Experimental: (§1) Then enzyme substrate is added as 10 μl of 2.5×FAM-labeled peptide+ATP solution to each well of the 384-well assay plate The reaction is allowed to proceed at 28° C. and quenched with the addition of 25 μl of stop buffer. The release of fluorescent FAM is quantitated as Percent inhibition=(max−conversion)/(max−min)*100.sp; “max” stands for DMSO control; “min” stands for low control. Convert conversion values to inhibition values. Percent inhibition=(max−conversion)/(max−min)*100. “max” stands for DMSO control; “min” stands for low control.

ARG/Abl2 = ARG/Abl2 (Homo sapiens, UniProt P42684); assay: Inhibition profile at 500 nM: ARG/Abl2; format: biochemical; conditions: 500 nM test compound; Table 1
Sequence of ARG/Abl2 (P42684 whole entry): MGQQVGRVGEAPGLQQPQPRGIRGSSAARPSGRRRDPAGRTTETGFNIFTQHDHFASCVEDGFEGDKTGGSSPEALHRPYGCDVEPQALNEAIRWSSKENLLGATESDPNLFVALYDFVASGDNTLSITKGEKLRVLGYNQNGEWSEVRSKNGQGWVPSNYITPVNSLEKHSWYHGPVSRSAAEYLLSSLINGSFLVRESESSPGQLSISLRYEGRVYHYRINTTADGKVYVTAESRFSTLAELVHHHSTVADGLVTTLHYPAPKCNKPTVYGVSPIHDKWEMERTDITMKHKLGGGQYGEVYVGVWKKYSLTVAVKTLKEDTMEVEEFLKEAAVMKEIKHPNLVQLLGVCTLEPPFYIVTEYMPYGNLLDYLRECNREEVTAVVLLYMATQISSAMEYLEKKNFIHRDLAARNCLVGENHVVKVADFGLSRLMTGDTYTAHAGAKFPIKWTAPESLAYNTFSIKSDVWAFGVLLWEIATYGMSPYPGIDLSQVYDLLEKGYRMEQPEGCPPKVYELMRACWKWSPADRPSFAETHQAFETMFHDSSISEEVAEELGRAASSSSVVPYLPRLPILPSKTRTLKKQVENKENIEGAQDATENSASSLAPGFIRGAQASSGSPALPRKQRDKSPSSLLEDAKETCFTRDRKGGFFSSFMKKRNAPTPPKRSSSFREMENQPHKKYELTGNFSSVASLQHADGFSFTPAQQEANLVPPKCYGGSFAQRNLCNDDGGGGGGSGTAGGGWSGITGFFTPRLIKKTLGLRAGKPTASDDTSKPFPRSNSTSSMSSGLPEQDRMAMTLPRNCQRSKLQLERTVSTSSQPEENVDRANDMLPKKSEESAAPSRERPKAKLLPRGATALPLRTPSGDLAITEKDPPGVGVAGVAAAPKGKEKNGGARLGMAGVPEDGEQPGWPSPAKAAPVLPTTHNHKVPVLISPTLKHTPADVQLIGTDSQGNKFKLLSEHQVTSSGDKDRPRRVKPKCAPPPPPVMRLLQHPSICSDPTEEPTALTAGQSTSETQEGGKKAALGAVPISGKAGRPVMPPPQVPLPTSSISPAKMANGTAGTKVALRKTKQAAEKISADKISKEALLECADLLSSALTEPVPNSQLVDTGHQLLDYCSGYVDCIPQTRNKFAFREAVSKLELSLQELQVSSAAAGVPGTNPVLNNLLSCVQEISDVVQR
Experimental: as §1

A53T synuclein mice = assay: Functional rescue in mutated alpha-synuclein model; format: in vivo; conditions: A53T mutant alpha-synuclein mice
Source text: The A53T mutant of alpha-synuclein is a clinically identified mutation that leads to hyper aggregation of alpha-synuclein in mice, and recapitulates the symptoms of Parkinson's disease such as dopaminergic neuron loss.
This effect is believed to be due to the compound blocking formation of the toxic form of A53T-alpha-synuclein by inhibiting c-Abl.

[4] = tested on: Mice injected with pre-formed alpha-synuclein fibrils; assay: Functional rescue in alpha-synuclein fibril model; format: in vivo
Source text: Injection of pre-formed alpha-synuclein fibrils is known to induce Parkinson's-like disease in mice. […] This effect is believes to be due to the compound blocking the formation of toxic pre-formed-fibril alpha synuclein by inhibiting c-Abl.

PDGFRa = PDGFRa (Homo sapiens, UniProt P16234); assay: Inhibition profile at 500 nM: PDGFRa; format: biochemical; conditions: 500 nM test compound; Table 2; read-out: Percent inhibition PDGFRa
Sequence of PDGFRa (P16234 24-1089): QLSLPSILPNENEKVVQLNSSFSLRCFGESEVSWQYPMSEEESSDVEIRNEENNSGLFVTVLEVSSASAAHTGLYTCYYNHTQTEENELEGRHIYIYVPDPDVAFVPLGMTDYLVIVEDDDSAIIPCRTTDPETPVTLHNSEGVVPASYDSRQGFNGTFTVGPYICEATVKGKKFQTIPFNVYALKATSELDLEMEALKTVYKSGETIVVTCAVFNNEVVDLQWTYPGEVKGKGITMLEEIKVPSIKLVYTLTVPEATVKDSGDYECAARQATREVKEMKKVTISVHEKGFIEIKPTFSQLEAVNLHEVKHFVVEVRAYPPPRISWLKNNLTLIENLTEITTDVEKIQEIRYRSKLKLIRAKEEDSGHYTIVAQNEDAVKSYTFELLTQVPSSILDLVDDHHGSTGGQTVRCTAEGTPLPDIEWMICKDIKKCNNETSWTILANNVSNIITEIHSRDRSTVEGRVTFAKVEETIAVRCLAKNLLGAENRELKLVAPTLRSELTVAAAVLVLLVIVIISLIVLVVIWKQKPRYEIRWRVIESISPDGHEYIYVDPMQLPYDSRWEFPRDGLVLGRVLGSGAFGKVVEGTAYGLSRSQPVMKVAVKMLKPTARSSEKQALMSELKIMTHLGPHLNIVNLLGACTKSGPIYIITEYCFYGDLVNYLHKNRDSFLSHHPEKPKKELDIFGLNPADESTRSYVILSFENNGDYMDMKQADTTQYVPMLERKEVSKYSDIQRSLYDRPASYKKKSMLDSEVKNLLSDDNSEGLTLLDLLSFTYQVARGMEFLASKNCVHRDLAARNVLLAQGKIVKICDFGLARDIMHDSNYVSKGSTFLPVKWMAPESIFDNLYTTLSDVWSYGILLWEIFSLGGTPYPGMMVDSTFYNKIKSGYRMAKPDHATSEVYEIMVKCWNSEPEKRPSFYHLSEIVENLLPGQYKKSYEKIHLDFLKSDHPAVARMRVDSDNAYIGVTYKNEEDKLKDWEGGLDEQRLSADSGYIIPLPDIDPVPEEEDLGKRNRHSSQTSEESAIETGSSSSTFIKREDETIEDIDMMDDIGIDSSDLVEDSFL
Experimental: as §1

c-Abl1 = c-Abl1 (Homo sapiens, UniProt P00519); assay: Inhibition of Abelson protein kinase c-Abl1 (FAM-labeled peptide assay, IC50); format: biochemical
Sequence of c-Abl1 (P00519 whole entry): as the sequence (P00519 whole entry) above
Experimental: (§2) Mix the compounds in intermediate plate for 10 min on shaker. For the assay of enzyme inhibitions, 5 μl of each well from the intermediate plate is transferred to a 384-well plate in duplicates, 10. […] Then enzyme substrate is added as 10 μl of 2.5×FAM-labeled peptide+ATP solution to each well of the 384-well assay plate The reaction is allowed to proceed at 28° C. and quenched with the addition of 25 μl of stop buffer. The release of fluorescent FAM is quantitated as Percent inhibition=(max−conversion)/(max−min)*100. “max” stands for DMSO control; “min” stands for low control. Data are fit in XLFit excel add-in version 4.3.1 to obtain IC50 values. Equation used is: Y=Bottom+(Top−Bottom)/(1+(IC50/X)^HillSlope).

c-Abl2 = c-Abl2 (Homo sapiens, UniProt P42684); assay: Inhibition of Abelson protein kinase c-Abl2 (FAM-labeled peptide assay, IC50); format: biochemical
Sequence of c-Abl2 (P42684 whole entry): as the sequence (P42684 whole entry) above
Experimental: as §2

[5] = tested on: animal models of Parkinson's Disease; conditions: literature (J. Neurosci. 31(1); Scientific Reports 4:4874); cited from earlier work
mice treated with MPTP [6] = conditions: known ATK inhibitors, background statement; cited from earlier work

Structure (SMILES): Cc1cc(-c2cncc(-c3ccnc(Nc4cc(NC(=O)c5ccc(CN6CCN(C)CC6)cc5)ccc4C)n3)c2)on1 [Compound 207]
- AUC(0-t) [1]: 1650 ± 1080 ng·h/mL
- Cmax [1]: 225 ± 83.8 ng/mL
- Tmax [1]: 5.3 ± 1.2 h
- Vd [1]: 6.5 ± 0.96 L/kg
- bioavailability [1]: 32%
- clearance [1]: 33.3 mL/min/kg
- half-life [1]: 186 min
- half-life [2]: 17.5 min
- fraction unbound (Serum protein binding): 0.141
- dopamine levels (protection of dopamine-secreting neurons) (mice treated with MPTP [3]): protected dopamine-secreting neurons from degeneration
- pole test latency (mice treated with MPTP [3]): recovered to a near-normal latency time

Structure (SMILES): Cc1ccc(NC(=O)c2ccc(CN3CCN(C)CC3)cc2)cc1Nc1nccc(-c2cncc(-n3cccn3)c2)n1 [Compound 303]
- Percent inhibition ABL (ABL): 79%
- Percent inhibition ARG/Abl2 (ARG/Abl2): 62%

Structure (SMILES): Cc1ccc(NC(=O)c2ccc(CN3CCN(C)CC3)cc2)cc1Nc1nccc(-c2cncc(-c3oncc3C)c2)n1 [Compound 809]
- AUC(0-t) [1]: 1060 ng·h/mL
- Cmax [1]: 170 ng/mL
- Tmax [1]: 4 h
- Vd [1]: 7.2 L/kg
- bioavailability [1]: 24%
- clearance [1]: 45 mL/min/kg
- half-life [1]: 132 min
- half-life [2]: 21.9 min
- fraction unbound (Serum protein binding): 0.143
- dopamine levels (protection of dopamine-secreting neurons) (mice treated with MPTP [3]): protected dopamine-secreting neurons from degeneration
- pole test latency (mice treated with MPTP [3]): recovered to a near-normal latency time
- dopaminergic neuron loss in A53T synuclein mice (A53T synuclein mice): fail to display the characteristics of dopaminergic neuron loss
- Parkinson's-like disease after pre-formed alpha-synuclein fibrils [4]: fail to exhibit Parkinson's like disease

Structure (SMILES): Cc1ccnc(-c2cncc(-c3ccnc(Nc4cc(NC(=O)c5ccc(CN6CCN(C)CC6)cc5)ccc4C)n3)c2)c1 [Compound 830]
- inhibition at 0.5 µM (PDGFRa): 100%
- AUC(0-t) [1]: 3720 ± 1090 ng·h/mL
- Cmax [1]: 465 ± 115 ng/mL
- Tmax [1]: 4 h
- Vd [1]: 6.3 ± 1.1 L/kg
- bioavailability [1]: 47%
- clearance [1]: 21.7 mL/min/kg
- half-life [1]: 216 min
- half-life [2]: 19.6 min

Structure (SMILES): Cc1ccc(NC(=O)c2ccc(CN3CCN(C)CC3)cc2)cc1Nc1nccc(-c2cncc(-c3ccnn3C)c2)n1 [Compound 831]
- inhibition at 0.5 µM (PDGFRa): 100%

Structure (SMILES): Cc1ccc(NC(=O)c2ccc(CN3CCN(C)CC3)cc2)cc1Nc1nccc(-c2cncc(-c3ccn(C)n3)c2)n1 [Compound 832]
- inhibition at 0.5 µM (PDGFRa): 100%
- AUC(0-t) [1]: 3180 ± 930 ng·h/mL
- Cmax [1]: 416 ± 84.5 ng/mL
- Tmax [1]: 4 h
- Vd [1]: 3.6 ± 1.8 L/kg
- bioavailability [1]: 33%
- clearance [1]: 21.7 mL/min/kg
- half-life [1]: 156 min
- half-life [2]: 24.5 min
- dopamine levels (protection of dopamine-secreting neurons) (mice treated with MPTP [3]): protected dopamine-secreting neurons from degeneration
- pole test latency (mice treated with MPTP [3]): recovered to a near-normal latency time

Structure (SMILES): Cc1ccc(NC(=O)c2ccc(CN3CCNCC3)cc2)cc1Nc1nccc(-c2cncc(-c3ccncc3)c2)n1 [Compound 870]
- inhibition at 0.5 µM (PDGFRa): 100%

Structure (SMILES): Cc1ccc(NC(=O)c2ccc(CN3CCNCC3)cc2)cc1Nc1nccc(-c2cncc(-c3ccccn3)c2)n1 [Compound 880]
- inhibition at 0.5 µM (PDGFRa): 100%

Structure (SMILES): Cc1ccc(NC(=O)c2ccc(CN3CCN(C)CC3)cc2)cc1Nc1nccc(-c2cncc(-c3ccns3)c2)n1 [Compound 8170]
- inhibition at 0.5 µM (PDGFRa): 100%

Structure (SMILES): Cc1cc(-c2cncc(-c3ccnc(Nc4cc(NC(=O)c5ccc(CN6CCN(C)CC6)cc5)ccc4C)n3)c2)sn1 [Compound 8190]
- inhibition at 0.5 µM (PDGFRa): 100%

Structure (SMILES): Cc1ccc(NC(=O)c2ccc(CN3CCN(C)CC3)cc2)cc1Nc1nccc(-c2cncc(-c3cnns3)c2)n1 [Compound 8230]
- IC50 (c-Abl1): > 1000 nM
- IC50 (c-Abl2): > 1000 nM

Structure (SMILES): Cc1ccc(NC(=O)c2ccc(CN3CCN(C)CC3)cc2)cc1Nc1nccc(-c2cncc(-c3snnc3C)c2)n1 [Compound 8240]
- IC50 (c-Abl1): > 1000 nM
- IC50 (c-Abl2): > 1000 nM

Structure (SMILES): Cc1ccc(NC(=O)c2ccc(CN3CCN(C)CC3)cc2)cc1Nc1nccc(-c2cncc(-c3nncs3)c2)n1 [Compound 8250]
- inhibition at 0.5 µM (PDGFRa): 100%

Structure (SMILES): Cc1nnc(-c2cncc(-c3ccnc(Nc4cc(NC(=O)c5ccc(CN6CCN(C)CC6)cc5)ccc4C)n3)c2)s1 [Compound 8260]
- inhibition at 0.5 µM (PDGFRa): 100%

Structure (SMILES): Cc1ccc(NC(=O)c2ccc(CN3CCN(C)CC3)cc2)cc1Nc1nccc(-c2cncc(-c3nccs3)c2)n1 [Compound 8270]
- AUC(0-t) [1]: 1760 ± 268 ng·h/mL
- Cmax [1]: 210 ± 31 ng/mL
- Tmax [1]: 5.3 h
- Vd [1]: 7.8 ± 0.7 L/kg
- bioavailability [1]: 46%
- clearance [1]: 43.3 mL/min/kg
- half-life [1]: 198 min
- half-life [2]: 20.9 min
- dopamine levels (protection of dopamine-secreting neurons) (mice treated with MPTP [3]): protected dopamine-secreting neurons from degeneration
- pole test latency (mice treated with MPTP [3]): not statistically significant

Structure (SMILES): Cc1cnc(-c2cncc(-c3ccnc(Nc4cc(NC(=O)c5ccc(CN6CCN(C)CC6)cc5)ccc4C)n3)c2)s1 [Compound 8280]
- inhibition at 0.5 µM (PDGFRa): 100%

Structure (SMILES): Cc1csc(-c2cncc(-c3ccnc(Nc4cc(NC(=O)c5ccc(CN6CCN(C)CC6)cc5)ccc4C)n3)c2)n1 [Compound 8290]
- inhibition at 0.5 µM (PDGFRa): 100%

Structure (SMILES): Cc1ccc(NC(=O)c2ccc(CN3CCN(C)CC3)cc2)cc1Nc1nccc(-c2cccnc2)n1 [imatinib, reference compound]
- AUC(0-t) [1]: 2730 ng·h/mL
- Cmax [1]: 241 ng/mL
- Tmax [1]: 4 h
- bioavailability [1]: ~53%
- effectiveness in animal models of Parkinson's Disease [5]: appear effective

Structure (SMILES): Cc1cn(-c2cc(NC(=O)c3ccc(C)c(Nc4nccc(-c5cccnc5)n4)c3)cc(C(F)(F)F)c2)cn1 [nilotinib]
- effectiveness in animal models of Parkinson's Disease [5]: appear effective
- neuroprotection in the acute MPTP-induced model of PD (mice treated with MPTP [6]): provide neuroprotection
